Measurements as given in patent US20080063643A1, “Peptide Derived From Hepatitis C Virus” (priority 2003, published 2008).

System: peptide-specific IgG in the serum
Test: ELISA of peptide-specific IgG in sera of HCV patients and healthy donors (Example 1)
Format: binding, human
Settings: ELISA, cut-off value 1.83; for Healthy donors (n = 10) Positive n: number of 10 healthy donors with serum IgG reactive to the peptide; for HCV patients (n = 12) Positive n: number of 12 HCV patients with serum IgG reactive to the peptide; for Healthy donors (n = 10) Positive %: share of 10 healthy donors with serum IgG reactive to the peptide; for HCV patients (n = 12) Positive %: share of 12 HCV patients with serum IgG reactive to the peptide
Method: Synthetic peptides having an HLA-A2-binding motif or an HLA-A24-binding motif from a conserved region of HCV genotype 1b protein were used in this study (Table 1). A peptide derived from HIV having an HLA-A2-binding motif was used as a negative control. All of these peptides were purchased from a commercially supplier. The purity was analyzed by reverse-phase high-pressure liquid chromatography and found to be 90% or higher.
The level of the peptide-specific IgG in the serum was measured by ELISA. First, each peptide was dissolved in dimethyl sulfoxide (DMSO) and stored at −80° C. The peptide was diluted with 0.1 M sodium carbonate/sodium bicarbonate solution containing disuccinimidyl suberate (DSS) as a crosslinker. An ELISA plate was coated with 20 μg/well of peptide at 4° C. overnight. The wells were washed 3 times with 0.05% Tween 20/PBS (PBST), and the plate was blocked with Block Ace (registered trademark) and left overnight at 4° C. Plasma or serum samples were diluted in 1:100, 1:200 and 1:400 with 0.05% Tween 20/Block Ace, and 100 μl of each of the samples was added to each well. After the samples were incubated at 37° C. for 2 hours, the plate was washed 9 times with PBST, 100 μl of a 1:1000 diluted rabbit anti-human IgG (γ-chain specific) was added to each well, and incubated at 37° C. for 2 hours. The plate was washed 9 times with PBST, and 100 μl of 1:100 diluted mouse anti-rabbit IgG conjugated to a horseradish peroxidase-dextran polymer was added to each well, and then the plate was incubated at room temperature for 40 minutes. After the plate was washed, 100 μl of a tetramethylbenzidine substrate solution was added to each well. The reaction was stopped by the addition of 2.0 M phosphoric acid. The cutoff value was calculated as the mean±3 SD of the optical density values of the control obtained from the healthy donors.
The level of IgG that reacts with each of the 62 types of peptides was measured in the sera from 12 patients infected with HCV and 10 healthy donors (HDs) (Table 1).

Row | Substance | Healthy donors (n = 10) Positive n | HCV patients (n = 12) Positive n | Healthy donors (n = 10) Positive % [%] | HCV patients (n = 12) Positive % [%]
1 | 3 (RYAPACKPL; Hepatitis C Virus) [Peptide 3] | 1 | 12 | 10 | 100
2 | 5 (HYAPRPCGI; Hepatitis C Virus) [Peptide 5] | 0 | 0 | 0 | 0
3 | 6 (HYPCTVNFTI; Hepatitis C Virus) [Peptide 6] | 0 | 0 | 0 | 0
4 | 8 (SFAIKWEYVL; Hepatitis C Virus) [Peptide 8] | 0 | 0 | 0 | 0
5 | 9 (EYVLLLFLL; Hepatitis C Virus) [Peptide 9] | 0 | 0 | 0 | 0
6 | 10 (AYALYGVWPL; Hepatitis C Virus) [Peptide 10] | 0 | 1 | 0 | 8
7 | 11 (AYMSKAHGI; Hepatitis C Virus) [Peptide 11] | 0 | 6 | 0 | 50
8 | 12 (HYAPRPCGI; Hepatitis C Virus) [Peptide 12] | 0 | 9 | 0 | 75
9 | 13 (VYEAADMIM; Hepatitis C Virus) [Peptide 13] | 0 | 6 | 0 | 50
10 | 15 (LFLARLIWWL; Hepatitis C Virus) [Peptide 15] | 0 | 0 | 0 | 0
11 | 17 (QFKQKAIGL; Hepatitis C Virus) [Peptide 17] | 0 | 3 | 0 | 25
12 | 19 (HYVQMALMKL; Hepatitis C Virus) [Peptide 19] | 0 | 1 | 0 | 8
13 | 20 (TYVYDHLTPL; Hepatitis C Virus) [Peptide 20] | 0 | 0 | 0 | 0
14 | 21 (HYVQMALMKL; Hepatitis C Virus) [Peptide 21] | 0 | 5 | 0 | 42
15 | 22 (TYVYDHLTPL; Hepatitis C Virus) [Peptide 22] | 0 | 7 | 0 | 58
16 | 23 (GYGAGVAGAL; Hepatitis C Virus) [Peptide 23] | 0 | 2 | 0 | 17
17 | 24 (AYAAQGYKVL; Hepatitis C Virus) [Peptide 24] | 0 | 2 | 0 | 17
18 | 25 (VYHGAGSKTL; Hepatitis C Virus) [Peptide 25] | 0 | 6 | 0 | 50
19 | 26 (AYALYGVWPL; Hepatitis C Virus) [Peptide 26] | 0 | 2 | 0 | 17
20 | 27 (HYPCTVNFTI; Hepatitis C Virus) [Peptide 27] | 0 | 4 | 0 | 33

Row | Substance | Healthy donors (n = 10) Positive n | HCV patients (n = 12) Positive n | Healthy donors (n = 10) Positive % [%] | HCV patients (n = 12) Positive % [%]
21 | 28 (YYRGLDVSVI; Hepatitis C Virus) [Peptide 28] | 0 | 2 | 0 | 17
22 | 29 (TFLVGLNQYL; Hepatitis C Virus) [Peptide 29] | 0 | 2 | 0 | 17
23 | 30 (VFVGLILLTL; Hepatitis C Virus) [Peptide 30] | 0 | 4 | 0 | 33
24 | 32 (IFLLALLSCL; Hepatitis C Virus) [Peptide 32] | 0 | 7 | 0 | 58
25 | 33 (NFISGIQYL; Hepatitis C Virus) [Peptide 33] | 0 | 0 | 0 | 0
26 | 35 (AFTASITSPL; Hepatitis C Virus) [Peptide 35] | 0 | 0 | 0 | 0
27 | 36 (GYGAGVAGAL; Hepatitis C Virus) [Peptide 36] | 0 | 1 | 0 | 8
28 | 37 (DFKTWLQSKL; Hepatitis C Virus) [Peptide 37] | 0 | 1 | 0 | 8
29 | 38 (SFSIFLLALL; Hepatitis C Virus) [Peptide 38] | 0 | 7 | 0 | 58
30 | 40 (YLLPRRGPRL; Hepatitis C Virus) [Peptide 40] | 0 | 12 | 0 | 100
31 | 41 (SYTWTGALI; Hepatitis C Virus) [Peptide 41] | 0 | 0 | 0 | 0
32 | 42 (HYRDVLKEM; Hepatitis C Virus) [Peptide 42] | 0 | 1 | 0 | 8
33 | 43 (ILHTPGCV; Hepatitis C Virus) [Peptide 43] | 0 | 3 | 0 | 25
34 | 44 (WFMWCLLLL; Hepatitis C Virus) [Peptide 44] | 0 | 0 | 0 | 0
35 | 45 (SLLAPGAKQNV; Hepatitis C Virus) [Peptide 45] | 3 | 0 | 30 | 0
36 | 47 (LLCPAGHAV; Hepatitis C Virus) [Peptide 47] | 2 | 1 | 20 | 8
37 | 52 (ILAGYGAGV; Hepatitis C Virus) [Peptide 52] | 1 | 0 | 10 | 0
38 | 55 (GLQDCTMLV; Hepatitis C Virus) [Peptide 55] | 1 | 2 | 10 | 17
39 | 56 (ALAHGVRAL; Hepatitis C Virus) [Peptide 56] | 1 | 0 | 10 | 0
